Patent US12065396B2, “Lipids for use in lipid nanoparticle formulations” (ACUITAS THERAPEUTICS, INC., priority 2017, dated 2024)

Key:
[1] = Determination of pKa of formulated lipids (TNS fluorescence assay in lipid nanoparticles); assay type: physicochemical
Description: As described elsewhere, the pKa of formulated lipids was correlated with the effectiveness of LNPs for delivery of nucleic acids (see Jayaraman et al, Angewandte Chemie, International Edition (2012), 51(34), 8529-8533; Semple et al, Nature Biotechnology 28, 172-176 (2010)). In some embodiments, the preferred range of pKa was ˜5 to ˜7. […] Lipid nanoparticles comprising compound of structure (I)/DSPC/cholesterol/PEG-lipid (50/10/38.5/1.5 or 47.5:10:40.8:1.7 mol %) in PBS at a concentration of 0.4 mM total lipid were prepared using the in-line process as described in Example 1. TNS was prepared as a 100 μM stock solution in distilled water. Vesicles were diluted to 24 μM lipid in 2 mL of buffered solutions containing 10 mM HEPES, 10 mM MES, 10 mM ammonium acetate, and 130 mM NaCl, where the pH ranged from 2.5 to 11. An aliquot of the TNS solution was added to give a final concentration of […] and following vortex mixing fluorescence intensity was measured at room temperature in a SLM Aminco Series 2 Luminescence Spectrophotometer using excitation and emission wavelengths of 321 nm and 445 nm. A sigmoidal best fit analysis was applied to the fluorescence data and the pKa was measured as the pH giving rise to half-maximal fluorescence intensity.

[2] = tested on: luciferase expression in the liver; assay: Luciferase mRNA in vivo evaluation using lipid nanoparticle compositions; set-up: species or system mice; settings: for Liver Luc (ng luc/g liver), *dosed at 1.0 mg/kg: 1.0 mg mRNA/kg (footnote *); for Liver Luc (ng luc/g liver), *dosed at 1.0 mg/kg / Liver Luc @ 0.5 mg/kg (ng luc/g liver): tail vein injection, liver 4 hours after administration; for Relative activity in the luciferase assay relative to MC3: liver luciferase expression 4 hours after tail vein injection, 47.5/10/40.8/1.7 cationic lipid/DSPC/cholesterol/PEG-DMA; for Liver Luc @ 0.5 mg/kg (ng luc/g liver): 0.5 mg mRNA/kg
Method: A lipid of structure (I), DSPC, cholesterol and PEG-lipid were solubilized in ethanol at a molar ratio of 50:10:38.5:1.5 or 47.5:10:40.8:1.7. Lipid nanoparticles (LNP) were prepared at a total lipid to mRNA weight ratio of approximately 10:1 to 30:1. Briefly, the mRNA was diluted to 0.2 mg/mL in 10 to 50 mM citrate buffer, pH 4. Syringe pumps were used to mix the ethanolic lipid solution with the mRNA aqueous solution at a ratio of about 1:5 to 1:3 (vol/vol) with total flow rates above 15 mL/min. The ethanol was then removed and the external buffer replaced with PBS by dialysis. Finally, the lipid nanoparticles were filtered through a 0.2 μm pore sterile filter.
Studies were performed in 6-8 week old female C57BL/6 mice (Charles River) 8-10 week old CD-1 (Harlan) mice (Charles River) according to guidelines established by an institutional animal were committee (ACC) and the Canadian Council on Animal Cwere (CCAC). Varying doses of mRNA-lipid nanoparticle were systemically administered by tail vein injection and animals euthanized at a specific time point (e.g., 4 hours) post-administration. Liver and spleen were collected in pre-weighed tubes, weights determined, immediately snap frozen in liquid nitrogen and stored at −80° C. until processing for analysis.
For liver, approximately 50 mg was dissected for analyses in a 2 mL FastPrep tubes (MP Biomedicals, Solon Ohio). ¼″ ceramic sphere (MP Biomedicals) was added to each tube and 500 μL of Glo Lysis Buffer—GLB (Promega, Madison Wis.) equilibrated to room temperature was added to liver tissue. Liver tissues were homogenized with the FastPrep24 instrument (MP Biomedicals) at 2×6.0 m/s for 15 seconds. Homogenate was incubated at room temperature for 5 minutes prior to a 1:4 dilution in GLB and assessed using SteadyGlo Luciferase assay system (Promega). Specifically, 50 μL of diluted twassue homogenate was reacted with 50 μL of SteadyGlo substrate, shaken for 10 seconds followed by 5 minute incubation and then quantitated using a CentroXS^3 LB 960 luminometer (Berthold Technologies, Germany). The amount of protein assayed was determined by using the BCA protein assay kit (Pierce, Rockford, Ill.). Relative luminescence units (RLU) were then normalized to total g protein assayed. To convert RLU to ng luciferase a standard curve was generated with QuantiLum Recombinant Luciferase (Promega).
The FLuc mRNA (L-6107 or L-7602) from Trilink Biotechnologies will express a luciferase protein, originally isolated from the firefly, Photinus pyralwas. FLuc was commonly used in mammalian cell culture to measure both gene expression and cell viability. It emits bioluminescence in the presence of the substrate, luciferin. This capped and polyadenylated mRNA was fully substituted with 5-methylcytidine and pseudouridine.
Compounds of structure (I) were formulated using the following molar ratio: 47.5% cationic lipid/10% dwastearoylphosphatidylcholine (DSPC)/40.8% Cholesterol/1.7% PEG lipid (“PEG-DMA” 2-[2-(ω-methoxy(polyethyleneglycol2000)ethoxy]-N,N-ditetradecylacetamide). Relative activity was determined by measuring luciferase expression in the liver 4 hours following administration via tail vein injection as described in Example 1. […]
The cationic lipids shown in Table 2 have previously been tested with nucleic acids. For comparative purposes, these lipids were also used to formulate lipid nanoparticles containing the FLuc mRNA (L-6107) using an in line mixing method, as described in Example 1 and in PCT/US10/22614, which is hereby incorporated by reference in its entirety. Lipid nanoparticles may be formulated using the following molar ratio: 50% Cationic lipid/10% distearoylphosphatidylcholine (DSPC)/38.5% Cholesterol/1.5% PEG lipid (“PEG-DMG”, i.e., 1-(monomethoxy-polyethyleneglycol)-2,3-dimyristoylglycerol, with an average PEG molecular weight of 2000). In alternate embodiments, cationic lipid, DSPC, cholesterol and PEG-lipid are formulated at a molar ratio of approximately 47.5:10:40.8:1.7. […]

[3] = TNS fluorescence, pH giving half-maximal fluorescence intensity, values in text

Structure (SMILES) | pKa [1, 3] | pKa ([1]; Table 3, TNS assay) | Liver Luc (ng luc/g liver), *dosed at 1.0 mg/kg [2] | Relative activity in the luciferase assay relative to MC3 [2] | Liver Luc @ 0.5 mg/kg (ng luc/g liver) [2] [ng luc/g liver]
CCCCCCCCCN(CCCN(C)C(C)=O)C(CCCCCCCCC(=O)OCC(CCCC)CCCCCC)CCCCCCCCC(=O)OCC(CCCC)CCCCCC (stereo not drawn) [Compound 1] | 4.69 | – | – | – | –
CCCCCCCCCN(CCCCC(=O)N(C)C)C(CCCCCCCCC(=O)OCC(CC)CCCC)CCCCCCCCC(=O)OCC(CC)CCCC (stereo not drawn) [Compound 2] | 4.74 | – | – | – | –
CCCCC(CC)COC(=O)CCCCCCCCC(CCCCCCCCC(=O)OCC(CC)CCCC)NCCCCC(=O)OCc1ccccc1 (stereo not drawn) [Compound 3] | 6.53 | 6.38 | 1370 ± 674* ng luc/g liver | 3.68 | –
CCCCCCCCCN(CCCCC(=O)N(C)CCO)C(CCCCCCCCC(=O)OCC(CCCC)CCCCCC)CCCCCCCCC(=O)OCC(CCCC)CCCCCC (stereo not drawn) [Compound 7] | – | 5.83 | 33 ± 18* ng luc/g liver | – | –
CCCCCCC(CCCC)COC(=O)CCCCCCCCC(CCCCCCCCC(=O)OCC(CCCC)CCCCCC)N(C)CCCO (stereo not drawn) [Compound 9] | – | 6.29 | 7628 ± 3298* ng luc/g liver | – | –
CCCCCCCCCN(CCCO)C(CCCCCCCCC(=O)OCC(CCCC)CCCCCC)CCCCCCCCC(=O)OCC(CCCC)CCCCCC (stereo not drawn) [Compound 12] | 4.84 | – | – | – | –
CCCCCCC(CCCC)COC(=O)CCCCCCCCC(CCCCCCCCC(=O)OCC(CCCC)CCCCCC)N(CC)CCCO (stereo not drawn) [Compound 13] | – | 6.03 | – | – | 514 ± 297
CCCCCCCCC(CCCCCC)COC(=O)CCCCCC(CCCCCC(=O)OCC(CCCCCC)CCCCCCCC)N(CC)CCCCO (stereo not drawn) [Compound 15] | – | 6.12 | – | – | 345 ± 141
CCCCCCCCC(CCCCCC)COC(=O)CCCCCC(CCCCCC(=O)OCC(CCCCCC)CCCCCCCC)N(C)CCCO (stereo not drawn) [Compound 17] | – | 6.39 | – | – | 405 ± 227
CCCCCCC(CCCC)C(=O)OCCCCCCCCCC(CCCCCCCCCOC(=O)C(CCCC)CCCCCC)N(C)CCCO (stereo not drawn) [Compound 19] | – | 6.31 | – | – | 216 ± 85

More lines, main results first:

pKa [1, 3] | pKa ([1]; Table 3, TNS assay) | Structure (SMILES) | Liver Luc (ng luc/g liver), *dosed at 1.0 mg/kg [2] | Relative activity in the luciferase assay relative to MC3 [2] | Liver Luc @ 0.5 mg/kg (ng luc/g liver) [2] [ng luc/g liver]
6.49 | 6.37 | CCCCCCC(CCCC)COC(=O)CCCCCCCCC(CCCCCCCCC(=O)OCC(CCCC)CCCCCC)N(CCCCN(C)C)C(=O)C(CC)CCCC (stereo not drawn) [Compound 4] | 1213 ± 702* ng luc/g liver | – | –
6.69 | 6.69 | CCCCCCCCC(=O)N(CCCCN(C)C)C(CCCCCCCCC(=O)OCC(CCCC)CCCCCC)CCCCCCCCC(=O)OCC(CCCC)CCCCCC (stereo not drawn) [Compound 5] | 1422 ± 372* ng luc/g liver | 6.4 | –
– | 6.1 | CCCCCCCCCN(CCCCC(=O)NCCO)C(CCCCCCCCC(=O)OCC(CCCC)CCCCCC)CCCCCCCCC(=O)OCC(CCCC)CCCCCC (stereo not drawn) [Compound 6] | 318 ± 222* ng luc/g liver | – | –
– | 6.09 | CCCCCCC(CCCC)COC(=O)CCCCCCCCC(CCCCCCCCC(=O)OCC(CCCC)CCCCCC)NCCCCC(=O)OCc1ccccc1 (stereo not drawn) [Compound 8] | 550 ± 164* ng luc/g liver | – | –
8.04 | – | CCCCCCC(CCCC)COC(=O)CCCCCCCCC(CCCCCCCCC(=O)OCC(CCCC)CCCCCC)NCCCO (stereo not drawn) [Compound 11] | – | – | –
– | 6.19 | CCCCCCC(CCCC)COC(=O)CCCCCCCCC(CCCCCCCCC(=O)OCC(CCCC)CCCCCC)N(CC)CCCCO (stereo not drawn) [Compound 14] | – | – | 238 ± 70
– | 6.43 | CCCCCCC(CCCC)COC(=O)CCCCCCCCC(CCCCCCCCC(=O)OCC(CCCC)CCCCCC)N(C)CCCCO (stereo not drawn) [Compound 16] | – | – | 2004 ± 582
– | 6.45 | CCCCCCCCC(CCCCCC)COC(=O)CCCCCC(CCCCCC(=O)OCC(CCCCCC)CCCCCCCC)N(C)CCCCO (stereo not drawn) [Compound 18] | – | – | 1506 ± 429
– | 6.25 | CCCCCCCCC(CCCCCC)COC(=O)CCCCCC(CCCCCC(=O)OCC(CCCCCC)CCCCCCCC)N(C)CCO (stereo not drawn) [Compound 20] | – | – | 92 ± 48
